Experiments:
[1] = tested on: sleep-deprived healthy volunteers; test: Karolinska Sleepiness Scale (KSS) in sleep-deprived healthy volunteers; assay type: in vivo, human; conditions: for KSS Sleepy/Alert LS Mean / KSS Sleepy/Alert LS Mean Difference vs Placebo Estimate: M: Modafinil 300 mg
Method: (§1) During the day before dosing on Day 1, participants were administered the KSS at scheduled timepoints. A practice MWT session was performed on Day 1 treatment period 1 (only once during the entire study) to familiarize subjects with the procedures. Study drug was administered in the clinic in the evening on Day 1 of each treatment period. Subjects underwent the MWT and KSS at specified timepoints after the start of the infusion. Subjects were required to stay awake between the MWT tests. Following completion of the IV infusion on Day 2, subjects underwent an additional MWT test. When the final MWT test and cognitive testing were completed, subjects were allowed to sleep (recovery sleep) for approximately 6 hours. PSG recording was collected during this time. Subjects were discharged from the unit after completion on Day 2 with continuing actigraphy upon discharge (to begin on Day −6 before the next treatment period). The interval between each subsequent treatment period was at least 7 days to ensure that the subject's circadian rhythm had returned to a normal cycle. Subject's vital signs, including BP, were monitored during the dosing and testing period. Blood samples for determination of Compound A plasma concentrations were collected at specified timepoints on Days 1 and 2 of each treatment period. Subjects completed the Columbia-Suicide Severity Rating Scale (C-SSRS) during screening, before study drug administration, and before discharge on Day 2 of each treatment period.
Secondary endpoints: • PK parameters calculated from plasma concentrations of Compound A. • Scores for sleepiness on the Karolinska Sleepiness Scale (KSS).
The secondary efficacy endpoint was sleepiness/alertness as assessed by KSS at 14, 10, 6, and 2 hours predose (approximately between 7:45 AM to 7:45 PM); 2, 2.75, 4.75, 6.75, and 8.75 hours post infusion start (approximately between mid-night to 7 AM in the morning); and at 1.75 hours post infusion end. A higher value indicates more sleepiness, a lower value indicates more alertness. Prior to infusion, there were no statistically significant differences at any time point of observation in KSS score for Compound A 44 and 112 mg treatments when compared to placebo. […] On the average, for modafinil and Compound A 44 and 112 mg, there were about 1.6 to 3.7 points increase in the KSS postdose/the infusion start, relative to that prior to dosing during the daytime. However, for placebo, the increase in the average KSS is 4.9.

[2] = tested on: sleep-deprived healthy volunteers; test: Safety/tolerability of a single dose in sleep-deprived healthy adults; assay type: in vivo, human; conditions: Modafinil 300 mg; moderate intensity
Method: as §1
Safety endpoints: adverse events (AEs), physical examinations, vital signs, 12-lead electrocardiograms (ECGs), clinical laboratory evaluations (hematology, blood chemistry, and urinalysis), drug-liking visual analogue scale, and Profile of Mood States.

[3] = DELTA: AVERAGE POST - AVERAGE PRIOR
[4] = Modafinil 300 mg, 1.75 HOURS POST INFUSION END
[5] = Modafinil 300 mg, 2 HOURS PREDOSE
[6] = Modafinil 300 mg, 2.75 HOURS POST INFUSION START
[7] = Modafinil 300 mg, 4.75 HOURS POST INFUSION START
[8] = Modafinil 300 mg, 6 HOURS PREDOSE
[9] = Modafinil 300 mg, 6.75 HOURS POST INFUSION START
[10] = Modafinil 300 mg, 8.75 HOURS POST INFUSION START
[11] = Modafinil 300 mg, 10 HOURS PREDOSE
[12] = Modafinil 300 mg, 14 HOURS PREDOSE

NC(=O)C[S+]([O-])C(c1ccccc1)c1ccccc1 (stereo not shown) [Modafinil, modafinil, reference compound]
KSS Sleepy/Alert LS Mean ([1]; 1.75 HOURS POST INFUSION END): 7.16
KSS Sleepy/Alert LS Mean Difference vs Placebo Estimate ([1]; 1.75 HOURS POST INFUSION END): −0.99
KSS Sleepy/Alert LS Mean ([1]; 2 HOURS PREDOSE): 3.32
KSS Sleepy/Alert LS Mean Difference vs Placebo Estimate ([1]; 2 HOURS PREDOSE): −0.58
KSS Sleepy/Alert LS Mean ([1]; 2.75 HOURS POST INFUSION START): 3.69
KSS Sleepy/Alert LS Mean Difference vs Placebo Estimate ([1]; 2.75 HOURS POST INFUSION START): −3.16
KSS Sleepy/Alert LS Mean ([1]; 4.75 HOURS POST INFUSION START): 4.32
KSS Sleepy/Alert LS Mean Difference vs Placebo Estimate ([1]; 4.75 HOURS POST INFUSION START): −3.83
KSS Sleepy/Alert LS Mean ([1]; 6 HOURS PREDOSE): 2.58
KSS Sleepy/Alert LS Mean Difference vs Placebo Estimate ([1]; 6 HOURS PREDOSE): −0.22
KSS Sleepy/Alert LS Mean ([1]; 6.75 HOURS POST INFUSION START): 5.79
KSS Sleepy/Alert LS Mean Difference vs Placebo Estimate ([1]; 6.75 HOURS POST INFUSION START): −2.71
KSS Sleepy/Alert LS Mean ([1]; 8.75 HOURS POST INFUSION START): 6.69
KSS Sleepy/Alert LS Mean Difference vs Placebo Estimate ([1]; 8.75 HOURS POST INFUSION START): −1.65
KSS Sleepy/Alert LS Mean ([1]; 10 HOURS PREDOSE): 2.32
KSS Sleepy/Alert LS Mean Difference vs Placebo Estimate ([1]; 10 HOURS PREDOSE): −0.18
KSS Sleepy/Alert LS Mean ([1]; 14 HOURS PREDOSE): 2.79
KSS Sleepy/Alert LS Mean Difference vs Placebo Estimate ([1]; 14 HOURS PREDOSE): −0.26
KSS Sleepy/Alert LS Mean ([1]; AVERAGE POST INFUSION START (2.75, 4.75, 6.75 AND 8.75 HOURS)): 5.12
KSS Sleepy/Alert LS Mean ([1]; AVERAGE PRIOR TO INFUSION START (14, 10, 6, 2 HOURS PREDOSE)): 2.75
KSS Sleepy/Alert LS Mean [1, 3]: 2.37
KSS Sleepy/Alert LS Mean Difference vs Placebo Estimate [1, 3]: −2.53
Difference between average KSS score post and prior to infusion start, LS Mean (SE) ([1]; Modafinil 300 mg): 2.37 (0.323)
KSS Max [1, 4]: 9
KSS Mean (SD) [1, 4]: 7.2 (1.80)
KSS Median [1, 4]: 8.0
KSS Min [1, 4]: 3
KSS Max [1, 5]: 6
KSS Mean (SD) [1, 5]: 3.3 (1.20)
KSS Median [1, 5]: 3.0
KSS Min [1, 5]: 1
KSS Max [1, 6]: 6
KSS Mean (SD) [1, 6]: 3.7 (1.63)
KSS Median [1, 6]: 4.0
KSS Min [1, 6]: 1
KSS Max [1, 7]: 7
KSS Mean (SD) [1, 7]: 4.3 (1.89)
KSS Median [1, 7]: 4.0
KSS Min [1, 7]: 1
KSS Max [1, 8]: 7
KSS Mean (SD) [1, 8]: 2.6 (1.35)
KSS Median [1, 8]: 2.0
KSS Min [1, 8]: 1
KSS Max [1, 9]: 8
KSS Mean (SD) [1, 9]: 5.8 (2.12)
KSS Median [1, 9]: 6.0
KSS Min [1, 9]: 2
KSS Max [1, 10]: 9
KSS Mean (SD) [1, 10]: 6.7 (1.92)
KSS Median [1, 10]: 7.0
KSS Min [1, 10]: 3
KSS Max [1, 11]: 5
KSS Mean (SD) [1, 11]: 2.3 (1.11)
KSS Median [1, 11]: 2.0
KSS Min [1, 11]: 1
KSS Max [1, 12]: 5
KSS Mean (SD) [1, 12]: 2.8 (1.08)
KSS Median [1, 12]: 3.0
KSS Min [1, 12]: 1
KSS score ([1]; Modafinil 300 mg, 1.75 hours post infusion end): 7.16
Drug-related TEAE of liver function test increased, number of subjects [2]: 1 subject
